# Reference: the kinase profiling compilation of Christmann-Franck et al. (2016)
# Key:
# Assay in all cases: KINOMEscan competition binding
# Settings in all cases: compound 10.0 µM
# MKNK1 (human) = MKNK1 (human) (UniProt Q9BUB5)
# PHKG2 (human) = PHKG2 (human) (UniProt P15735)
# CDK14 (human) = CDK14 (human) (UniProt O94921)
# AURKA (human) = AURKA (human) (UniProt O14965)
# STK39 (human) = STK39 (human) (UniProt Q9UEW8)
# MAP2K5 (human) = MAP2K5 (human) (UniProt Q13163)
# PKN2 (human) = PKN2 (human) (UniProt Q16513)
# [1] = tested on: FGFR3 (human), P22607 [G697C]
# KDR (human) = KDR (human) (UniProt P35968)
# NEK11 (human) = NEK11 (human) (UniProt Q8NG66)
# MARK3 (human) = MARK3 (human) (UniProt P27448)
# STK16 (human) = STK16 (human) (UniProt O75716)
# TNK2 (human) = TNK2 (human) (UniProt Q07912)
# MARK4 (human) = MARK4 (human) (UniProt Q96L34)
# Chain of MARK4 (human) (Q96L34 whole entry, looked up): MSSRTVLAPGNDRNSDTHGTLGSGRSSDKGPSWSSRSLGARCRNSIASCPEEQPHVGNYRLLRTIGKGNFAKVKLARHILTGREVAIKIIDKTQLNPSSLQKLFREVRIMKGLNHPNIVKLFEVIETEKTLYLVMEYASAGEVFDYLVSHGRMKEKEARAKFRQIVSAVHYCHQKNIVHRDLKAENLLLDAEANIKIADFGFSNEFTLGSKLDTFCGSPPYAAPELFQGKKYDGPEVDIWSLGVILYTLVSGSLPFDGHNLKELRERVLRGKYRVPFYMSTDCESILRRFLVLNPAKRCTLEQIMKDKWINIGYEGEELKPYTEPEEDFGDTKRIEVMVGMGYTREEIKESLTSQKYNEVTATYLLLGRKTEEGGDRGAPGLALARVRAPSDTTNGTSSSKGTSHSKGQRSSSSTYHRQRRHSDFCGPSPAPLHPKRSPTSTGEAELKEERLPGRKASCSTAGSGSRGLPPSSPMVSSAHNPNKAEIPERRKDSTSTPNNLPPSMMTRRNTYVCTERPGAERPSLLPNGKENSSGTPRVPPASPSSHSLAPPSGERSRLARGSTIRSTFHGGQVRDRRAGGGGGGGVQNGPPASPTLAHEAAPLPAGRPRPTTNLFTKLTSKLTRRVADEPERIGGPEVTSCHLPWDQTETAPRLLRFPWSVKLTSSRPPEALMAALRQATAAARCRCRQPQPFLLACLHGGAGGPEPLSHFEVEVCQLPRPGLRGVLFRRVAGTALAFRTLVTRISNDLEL
# CHEK1 (human) = CHEK1 (human) (UniProt O14757)
# CDK19 (human) = CDK19 (human) (UniProt Q9BWU1)
# Chain of CDK19 (human) (Q9BWU1 whole entry, looked up): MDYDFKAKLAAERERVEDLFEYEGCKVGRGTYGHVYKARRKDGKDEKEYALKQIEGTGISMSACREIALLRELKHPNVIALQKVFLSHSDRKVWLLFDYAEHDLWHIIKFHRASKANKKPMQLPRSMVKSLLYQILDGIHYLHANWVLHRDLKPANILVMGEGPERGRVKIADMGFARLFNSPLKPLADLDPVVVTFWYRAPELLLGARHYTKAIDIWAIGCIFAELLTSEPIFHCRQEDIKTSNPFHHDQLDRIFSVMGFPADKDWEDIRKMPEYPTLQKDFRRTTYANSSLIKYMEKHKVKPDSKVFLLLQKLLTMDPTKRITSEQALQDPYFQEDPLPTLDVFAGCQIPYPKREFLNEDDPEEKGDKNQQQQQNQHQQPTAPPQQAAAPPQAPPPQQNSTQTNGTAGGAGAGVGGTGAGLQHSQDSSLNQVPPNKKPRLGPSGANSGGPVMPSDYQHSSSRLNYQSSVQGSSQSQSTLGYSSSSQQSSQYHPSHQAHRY
# PHKG1 (human) = PHKG1 (human) (UniProt Q16816)
# Chain of PHKG1 (human) (Q16816 whole entry, looked up): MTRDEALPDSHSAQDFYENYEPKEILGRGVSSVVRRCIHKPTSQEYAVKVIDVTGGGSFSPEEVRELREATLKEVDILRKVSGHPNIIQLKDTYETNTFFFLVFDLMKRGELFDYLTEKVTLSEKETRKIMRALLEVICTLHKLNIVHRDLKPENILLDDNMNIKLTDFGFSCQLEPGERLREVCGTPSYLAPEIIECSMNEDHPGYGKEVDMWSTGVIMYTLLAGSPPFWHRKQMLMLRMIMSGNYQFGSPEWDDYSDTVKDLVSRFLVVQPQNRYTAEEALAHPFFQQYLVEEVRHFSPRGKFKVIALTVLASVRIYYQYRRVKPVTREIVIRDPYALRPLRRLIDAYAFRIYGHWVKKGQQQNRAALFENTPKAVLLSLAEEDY
# RIOK2 (human) = RIOK2 (human) (UniProt Q9BVS4)
# PAK7 (human) = PAK7 (human) (UniProt Q9P286)
# ABL2 (human) = ABL2 (human) (UniProt P42684)
# CSNK2A2 (human) = CSNK2A2 (human) (UniProt P19784)
# [2] = tested on: RET (human), P07949 [V804L]
# TGFBR2 (human) = TGFBR2 (human) (UniProt P37173)
# EPHA2 (human) = EPHA2 (human) (UniProt P29317)
# [3] = target: JAK1 JH2 pseudokinase (human) (UniProt P23458)
# ADCK3 (human) = ADCK3 (human) (UniProt Q8NI60)
# MAP3K15 (human) = MAP3K15 (human) (UniProt Q6ZN16)
# Chain of MAP3K15 (human) (Q6ZN16 whole entry, looked up): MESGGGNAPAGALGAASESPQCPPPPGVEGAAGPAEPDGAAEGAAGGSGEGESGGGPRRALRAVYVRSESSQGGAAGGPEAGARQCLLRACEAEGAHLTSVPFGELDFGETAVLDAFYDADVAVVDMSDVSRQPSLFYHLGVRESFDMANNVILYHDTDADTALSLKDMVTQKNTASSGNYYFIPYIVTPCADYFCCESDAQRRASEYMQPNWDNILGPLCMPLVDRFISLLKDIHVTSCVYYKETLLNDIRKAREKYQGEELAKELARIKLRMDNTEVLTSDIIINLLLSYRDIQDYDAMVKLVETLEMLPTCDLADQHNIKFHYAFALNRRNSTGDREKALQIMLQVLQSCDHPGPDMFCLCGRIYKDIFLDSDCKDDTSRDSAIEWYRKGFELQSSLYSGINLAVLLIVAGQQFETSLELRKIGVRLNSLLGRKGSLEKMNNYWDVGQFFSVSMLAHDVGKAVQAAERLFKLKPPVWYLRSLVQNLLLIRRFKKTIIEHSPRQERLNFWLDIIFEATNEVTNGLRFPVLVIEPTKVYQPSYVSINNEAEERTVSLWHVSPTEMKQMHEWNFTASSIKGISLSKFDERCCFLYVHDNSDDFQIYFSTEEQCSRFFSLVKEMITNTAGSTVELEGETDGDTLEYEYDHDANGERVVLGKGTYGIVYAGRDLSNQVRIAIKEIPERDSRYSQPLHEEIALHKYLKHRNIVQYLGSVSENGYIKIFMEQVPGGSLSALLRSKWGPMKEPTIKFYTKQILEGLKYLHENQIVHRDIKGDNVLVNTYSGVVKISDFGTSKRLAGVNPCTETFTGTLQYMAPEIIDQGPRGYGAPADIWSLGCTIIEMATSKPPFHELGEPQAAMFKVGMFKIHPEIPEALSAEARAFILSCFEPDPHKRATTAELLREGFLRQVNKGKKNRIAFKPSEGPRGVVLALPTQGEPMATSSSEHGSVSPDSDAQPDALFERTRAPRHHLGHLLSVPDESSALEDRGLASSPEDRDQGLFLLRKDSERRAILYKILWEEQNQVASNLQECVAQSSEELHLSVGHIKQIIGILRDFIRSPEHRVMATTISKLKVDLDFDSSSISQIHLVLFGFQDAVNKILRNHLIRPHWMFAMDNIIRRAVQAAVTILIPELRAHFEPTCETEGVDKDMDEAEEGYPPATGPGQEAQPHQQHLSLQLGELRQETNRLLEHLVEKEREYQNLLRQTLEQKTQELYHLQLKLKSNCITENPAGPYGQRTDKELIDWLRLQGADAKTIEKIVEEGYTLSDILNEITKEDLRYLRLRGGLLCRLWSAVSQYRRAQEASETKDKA
# DCLK3 (human) = DCLK3 (human) (UniProt Q9C098)
# Chain of DCLK3 (human) (Q9C098 whole entry, looked up): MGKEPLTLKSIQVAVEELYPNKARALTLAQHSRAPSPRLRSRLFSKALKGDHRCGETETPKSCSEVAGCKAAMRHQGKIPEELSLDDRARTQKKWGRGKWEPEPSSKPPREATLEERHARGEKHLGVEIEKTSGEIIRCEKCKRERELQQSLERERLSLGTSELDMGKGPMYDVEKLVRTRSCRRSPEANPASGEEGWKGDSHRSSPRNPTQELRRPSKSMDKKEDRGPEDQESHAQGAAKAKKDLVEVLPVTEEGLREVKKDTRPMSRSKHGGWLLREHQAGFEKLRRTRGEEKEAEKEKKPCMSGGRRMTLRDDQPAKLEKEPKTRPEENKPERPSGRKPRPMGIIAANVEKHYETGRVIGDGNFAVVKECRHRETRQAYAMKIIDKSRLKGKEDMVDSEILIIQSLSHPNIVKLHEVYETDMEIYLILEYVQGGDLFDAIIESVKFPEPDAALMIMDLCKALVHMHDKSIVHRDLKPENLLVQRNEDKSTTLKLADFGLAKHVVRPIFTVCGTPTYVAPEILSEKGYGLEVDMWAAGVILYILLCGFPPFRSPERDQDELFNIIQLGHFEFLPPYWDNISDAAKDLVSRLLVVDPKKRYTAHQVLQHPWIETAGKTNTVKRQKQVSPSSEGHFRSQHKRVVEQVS
# NEK1 (human) = NEK1 (human) (UniProt Q96PY6)
# EPHB3 (human) = EPHB3 (human) (UniProt P54753)
# Chain of EPHB3 (human) (P54753 whole entry, looked up): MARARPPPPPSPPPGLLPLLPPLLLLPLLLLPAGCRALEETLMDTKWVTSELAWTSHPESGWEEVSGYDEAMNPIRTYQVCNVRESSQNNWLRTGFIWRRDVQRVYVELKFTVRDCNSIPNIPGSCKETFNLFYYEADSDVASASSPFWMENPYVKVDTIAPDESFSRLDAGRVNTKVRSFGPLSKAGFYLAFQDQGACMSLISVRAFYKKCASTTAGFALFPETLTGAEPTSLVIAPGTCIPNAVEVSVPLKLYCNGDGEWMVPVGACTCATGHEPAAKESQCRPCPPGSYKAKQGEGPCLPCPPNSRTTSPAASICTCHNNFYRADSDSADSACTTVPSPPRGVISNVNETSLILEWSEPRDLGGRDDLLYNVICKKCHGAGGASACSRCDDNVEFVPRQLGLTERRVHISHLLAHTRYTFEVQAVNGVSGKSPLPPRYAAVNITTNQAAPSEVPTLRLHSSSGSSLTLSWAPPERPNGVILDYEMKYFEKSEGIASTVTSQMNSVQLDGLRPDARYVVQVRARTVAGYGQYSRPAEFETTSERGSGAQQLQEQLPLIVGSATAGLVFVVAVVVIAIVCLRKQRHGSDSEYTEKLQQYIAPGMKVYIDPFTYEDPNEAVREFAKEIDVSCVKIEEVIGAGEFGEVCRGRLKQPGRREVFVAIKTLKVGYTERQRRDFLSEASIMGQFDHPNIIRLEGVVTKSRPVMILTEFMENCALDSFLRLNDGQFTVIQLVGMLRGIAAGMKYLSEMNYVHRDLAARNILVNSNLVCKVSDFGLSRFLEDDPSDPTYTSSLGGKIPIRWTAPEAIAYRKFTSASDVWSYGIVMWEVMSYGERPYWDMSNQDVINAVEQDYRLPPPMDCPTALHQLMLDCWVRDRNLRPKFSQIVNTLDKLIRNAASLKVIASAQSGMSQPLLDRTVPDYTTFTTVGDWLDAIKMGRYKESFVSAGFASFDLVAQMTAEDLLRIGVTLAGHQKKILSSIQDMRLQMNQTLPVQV
# PKN3 (M.tuberculosis) = PKN3 (M.tuberculosis) (UniProt Q6P5Z2)
# STK4 (human) = STK4 (human) (UniProt Q13043)
# SLK (human) = SLK (human) (UniProt Q9H2G2)
# MAPKAPK2 (human) = MAPKAPK2 (human) (UniProt P49137)
# PRKD3 (human) = PRKD3 (human) (UniProt O94806)
# DAPK1 (human) = DAPK1 (human) (UniProt P53355)
# FRK (human) = FRK (human) (UniProt P42685)
# SRPK1 (human) = SRPK1 (human) (UniProt Q96SB4)
# INSR (human) = INSR (human) (UniProt P06213)
# RPS6KA2 KD1 (human) = RPS6KA2 KD1 (human) (UniProt Q15349)
# Chain of MKNK1 (human) (Q9BUB5 whole entry, looked up): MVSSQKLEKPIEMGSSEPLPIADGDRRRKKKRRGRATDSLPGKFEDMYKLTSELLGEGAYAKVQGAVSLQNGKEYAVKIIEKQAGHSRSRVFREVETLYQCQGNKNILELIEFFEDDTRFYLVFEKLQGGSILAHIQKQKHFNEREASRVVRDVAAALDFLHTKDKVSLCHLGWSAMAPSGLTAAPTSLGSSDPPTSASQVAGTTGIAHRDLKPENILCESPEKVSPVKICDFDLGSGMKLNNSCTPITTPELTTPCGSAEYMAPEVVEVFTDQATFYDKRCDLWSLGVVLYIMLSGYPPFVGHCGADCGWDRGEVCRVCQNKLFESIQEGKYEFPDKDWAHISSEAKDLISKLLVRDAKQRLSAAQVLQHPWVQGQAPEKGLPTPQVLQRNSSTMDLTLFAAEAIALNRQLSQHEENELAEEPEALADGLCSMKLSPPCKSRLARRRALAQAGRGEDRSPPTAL
Compound,"kinase still bound, per cent of control (MKNK1 (human)) [%]","kinase still bound, per cent of control (PHKG2 (human)) [%]","kinase still bound, per cent of control (CDK14 (human)) [%]","kinase still bound, per cent of control (AURKA (human)) [%]","kinase still bound, per cent of control (STK39 (human)) [%]","kinase still bound, per cent of control (MAP2K5 (human)) [%]","kinase still bound, per cent of control (PKN2 (human)) [%]","kinase still bound, per cent of control [1] [%]","kinase still bound, per cent of control (KDR (human)) [%]","kinase still bound, per cent of control (NEK11 (human)) [%]","kinase still bound, per cent of control (MARK3 (human)) [%]","kinase still bound, per cent of control (STK16 (human)) [%]","kinase still bound, per cent of control (TNK2 (human)) [%]","kinase still bound, per cent of control (MARK4 (human)) [%]","kinase still bound, per cent of control (CHEK1 (human)) [%]","kinase still bound, per cent of control (CDK19 (human)) [%]","kinase still bound, per cent of control (PHKG1 (human)) [%]","kinase still bound, per cent of control (RIOK2 (human)) [%]","kinase still bound, per cent of control (PAK7 (human)) [%]","kinase still bound, per cent of control (ABL2 (human)) [%]",further results
CNC(=O)Nc1ccc(-c2nc(N3CC4CCC(C3)O4)c3cnn(C4CCC5(CC4)OCCO5)c3n2)cc1,100,96,94,100,100,93,83,74,76,99,92,98,84,94,100,100,100,90,100,84,"kinase still bound, per cent of control (CSNK2A2 (human)): 100%; kinase still bound, per cent of control [2]: 85%; kinase still bound, per cent of control (TGFBR2 (human)): 100%; kinase still bound, per cent of control (EPHA2 (human)): 81%; kinase still bound, per cent of control [3]: 83%; kinase still bound, per cent of control (ADCK3 (human)): 86%; kinase still bound, per cent of control (MAP3K15 (human)): 100%; kinase still bound, per cent of control (DCLK3 (human)): 100%; kinase still bound, per cent of control (NEK1 (human)): 100%; kinase still bound, per cent of control (EPHB3 (human)): 92%; kinase still bound, per cent of control (PKN3 (M.tuberculosis)): 94%; kinase still bound, per cent of control (STK4 (human)): 100%; kinase still bound, per cent of control (SLK (human)): 100%; kinase still bound, per cent of control (MAPKAPK2 (human)): 82%; kinase still bound, per cent of control (PRKD3 (human)): 100%; kinase still bound, per cent of control (DAPK1 (human)): 12%; kinase still bound, per cent of control (FRK (human)): 68%; kinase still bound, per cent of control (SRPK1 (human)): 100%; kinase still bound, per cent of control (INSR (human)): 84%; kinase still bound, per cent of control (RPS6KA2 KD1 (human)): 100%"
COc1cc2c(Nc3ccc(NC(=O)c4ccccc4)cc3)ncnc2cc1OCCCN1CCOCC1,100,76,100,8.6,100,0.3,100,100,26,100,96,100,5.9,100,100,100,53,100,94,82,"kinase still bound, per cent of control (CSNK2A2 (human)): 100%; kinase still bound, per cent of control [2]: 9.6%; kinase still bound, per cent of control (TGFBR2 (human)): 82%; kinase still bound, per cent of control (EPHA2 (human)): 84%; kinase still bound, per cent of control [3]: 32%; kinase still bound, per cent of control (ADCK3 (human)): 90%; kinase still bound, per cent of control (MAP3K15 (human)): 100%; kinase still bound, per cent of control (DCLK3 (human)): 96%; kinase still bound, per cent of control (NEK1 (human)): 81%; kinase still bound, per cent of control (EPHB3 (human)): 100%; kinase still bound, per cent of control (PKN3 (M.tuberculosis)): 37%; kinase still bound, per cent of control (STK4 (human)): 78%; kinase still bound, per cent of control (SLK (human)): 0.95%; kinase still bound, per cent of control (MAPKAPK2 (human)): 100%; kinase still bound, per cent of control (PRKD3 (human)): 100%; kinase still bound, per cent of control (DAPK1 (human)): 84%; kinase still bound, per cent of control (FRK (human)): 82%; kinase still bound, per cent of control (SRPK1 (human)): 100%; kinase still bound, per cent of control (INSR (human)): 77%; kinase still bound, per cent of control (RPS6KA2 KD1 (human)): 84%"
CCc1nc(-c2cccc(C)c2)c(-c2ccnc(NC(=O)c3ccccc3)c2)s1,100,76,99,90,100,5.2,76,93,38,100,72,74,78,100,77,91,100,92,90,47,"kinase still bound, per cent of control (CSNK2A2 (human)): 86%; kinase still bound, per cent of control [2]: 99%; kinase still bound, per cent of control (TGFBR2 (human)): 82%; kinase still bound, per cent of control (EPHA2 (human)): 66%; kinase still bound, per cent of control [3]: 70%; kinase still bound, per cent of control (ADCK3 (human)): 0.2%; kinase still bound, per cent of control (MAP3K15 (human)): 100%; kinase still bound, per cent of control (DCLK3 (human)): 90%; kinase still bound, per cent of control (NEK1 (human)): 90%; kinase still bound, per cent of control (EPHB3 (human)): 81%; kinase still bound, per cent of control (PKN3 (M.tuberculosis)): 100%; kinase still bound, per cent of control (STK4 (human)): 74%; kinase still bound, per cent of control (SLK (human)): 41%; kinase still bound, per cent of control (MAPKAPK2 (human)): 100%; kinase still bound, per cent of control (PRKD3 (human)): 26%; kinase still bound, per cent of control (DAPK1 (human)): 72%; kinase still bound, per cent of control (FRK (human)): 36%; kinase still bound, per cent of control (SRPK1 (human)): 100%; kinase still bound, per cent of control (RPS6KA2 KD1 (human)): 100%"
